Data taken from patent publication US11479539B2, “Small molecule modulators of the BTB domain of Keap1” (MedImmune Limited, priority 2017, dated 2022).
pEC50: −log10 of the molar value.

target: Keap1 (Homo sapiens (Human), UniProt Q14145); experiment: HEK293 ARE luciferase assay; assay type: cell-based; settings: HEK-293 ARE firefly luciferase transiently transfected cells; 18 h incubation; mean of 1 to 20 individual measurements
Text: The purpose of this assay is to identify small molecule inhibitors of Keap1, preventing Keap1 binding to Nrf2, and thus activating the Nrf2 signalling pathway in HEK-293 ARE firefly luciferase transiently transfected cells. HEK-293 cells express wild-type Keap1 protein and therefore have low constitutive levels of Nrf2 protein and Nrf2-dependent transcription. […] When Keap1 is inhibited, Nrf2 signalling is activated, and there is an increase in luciferase expression and light emission.
Cryopreserved HEK ARE luciferase cells were rapidly thawed in a 37° C. water bath and resuspended in assay culture medium (DMEM, 10% FCS, 2 mM L-glutamine). The cell suspension was pelleted by centrifugation ([…]; 300 g) using a Heraeus benchtop centrifuge. Supernatant was removed and the pellet was gently resuspended in 5 mL culture medium per vial. Cell viability and cell number was measured using an Invitrogen Countess automated cell counter (typical viability 80%), and cells were diluted to a density of 5.0×10^5 cells/mL.
Cells were then plated out into white 384-well plates (Greiner 781080) using a Multidrop Combi, 20 μL/well, to give 10,000 cells/well. As appropriate, test compounds had been added to wells prior to dispensing cells using an Echo 555 acoustic dispenser (Labcyte). Plates were left at room temperature for ˜10 min to promote even cell settling across the plate before incubation for 18 h at 37° C., 95% humidity and 5% CO2.
After 18 h incubation, plates were removed from the incubator and allowed to cool to room temperature for 30 min, before 10 μL per well SteadyGlo reagent detection reagent was added (as per manufacturer's instructions, 10 min before required 10 mL room temperature buffer was added to one vial of lyophilised substrate and inverted several times to fully dissolve). Plates were then incubated in the dark for 30 min before reading on an Envision plate reader.
Compounds were acoustically dispensed using a Labcyte Echo, using a 10 pt dose curve with a top concentration of 100 μM. Assay wells were backfilled with DMSO to a total of 60 nL to maintain 0.3% (v/v) DMSO through the assay.
The Stimulator signal was defined using 30 μM tert-butyl hydroquinone (tBHQ) and the Neutral signal by DMSO vehicle control. All calculations were performed using GeneData.
In IBIS Column Calculations, Assay Type was set to ‘Stimulator’, and the Activity Threshold was set to 50.
The mean values were calculated from anywhere from 1 to 20 individual measurements.

Chain of Keap1 (Q14145 whole entry): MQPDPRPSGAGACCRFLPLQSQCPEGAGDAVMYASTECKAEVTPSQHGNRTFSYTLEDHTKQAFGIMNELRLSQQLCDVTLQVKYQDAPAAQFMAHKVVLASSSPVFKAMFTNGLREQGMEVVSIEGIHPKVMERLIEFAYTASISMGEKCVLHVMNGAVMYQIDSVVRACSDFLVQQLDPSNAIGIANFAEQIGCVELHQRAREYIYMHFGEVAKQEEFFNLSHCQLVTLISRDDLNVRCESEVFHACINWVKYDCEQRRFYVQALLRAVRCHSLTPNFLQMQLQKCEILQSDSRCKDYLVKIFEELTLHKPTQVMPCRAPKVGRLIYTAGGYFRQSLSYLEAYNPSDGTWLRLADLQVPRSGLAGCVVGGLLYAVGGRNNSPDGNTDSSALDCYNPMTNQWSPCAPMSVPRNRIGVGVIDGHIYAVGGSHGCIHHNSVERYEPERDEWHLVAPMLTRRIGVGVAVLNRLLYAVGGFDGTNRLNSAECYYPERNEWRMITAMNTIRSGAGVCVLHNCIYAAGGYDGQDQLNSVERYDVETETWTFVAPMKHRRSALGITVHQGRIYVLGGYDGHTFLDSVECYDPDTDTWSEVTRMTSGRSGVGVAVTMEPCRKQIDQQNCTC

First: COC1(c2cccc(-c3ccnn3C)n2)C=C(C#N)C(=O)C2(CC2)C1 (single isomer, unassigned) [Compound 53, 7-methoxy-7-(6-(1-methyl-1H-pyrazol-5-yl)pyridin-2-yl)-4-oxospiro[2.5]oct-5-ene-5-carbonitrile]
Second: COC1(c2cccc(-c3c(C)noc3C)n2)C=C(C#N)C(=O)C2(CC2)C1 (single isomer, unassigned) [Compound 52, 7-(6-(3,5-dimethylisoxazol-4-yl)pyridin-2-yl)-7-methoxy-4-oxospiro[2.5]oct-5-ene-5-carbonitrile]
The pEC50 of the first is 0.25 log units lower: 6.88 for the first, 7.13 for the second. The second is the more potent here.

Going from COC1(c2ncc(F)cc2C)C=C(C#N)C(=O)C2(CCCC2)C1 (centres unmarked) [Compound 153, 9-(5-fluoro-3-methylpyridin-2-yl)-9-methoxy-6-oxospiro[4.5]dec-7-ene-7-carbonitrile] to COC1(c2ccc(F)cn2)C=C(C#N)C(=O)C2(CCCC2)C1 (single isomer, unassigned) [Compound 67, 9-(5-fluoropyridin-2-yl)-9-methoxy-6-oxospiro[4.5]dec-7-ene-7-carbonitrile], the pEC50 rises from 5.15 to 6.62 (1.47 log units). The second is the more potent here.

COC1(c2ncc(F)cc2-c2c(C)nn(C)c2C)C=C(C#N)C(=O)C(C)(C)C1 (centres unmarked) [Compound 189, 3-[5-fluoro-3-(1,3,5-trimethyl-1H-pyrazol-4-yl)pyridin-2-yl]-3-methoxy-5,5-dimethyl-6-oxocyclohex-1-ene-1-carbonitrile] and COC1(c2ncc(F)cc2-c2sc(C)nc2C)C=C(C#N)C(=O)C(C)(C)C1 (centres unmarked) [Compound 195, 3-[3-(2,4-dimethyl-1,3-thiazol-5-yl)-5-fluoropyridin-2-yl]-3-methoxy-5,5-dimethyl-6-oxocyclohex-1-ene-1-carbonitrile] are within 0.2 log units of each other in pEC50: 5.82 for the first, 5.89 for the second.

COC1(c2ncc(F)cc2-c2cccnc2C)C=C(C#N)C(=O)C(C)(C)C1 (centres unmarked) [Compound 177, 3-(5-fluoro-2′-methyl[3,3′-bipyridin]-2-yl)-3-methoxy-5,5-dimethyl-6-oxocyclohex-1-ene-1-carbonitrile] and COC1(c2ncc(F)cc2-c2cnc(C)nc2)C=C(C#N)C(=O)C(C)(C)C1 (centres unmarked) [Compound 183, 3-[5-fluoro-3-(2-methylpyrimidin-5-yl)pyridin-2-yl]-3-methoxy-5,5-dimethyl-6-oxocyclohex-1-ene-1-carbonitrile] are within 0.2 log units of each other in pEC50: 6.99 for the first, 6.92 for the second.

Compared with COC1(c2ncc(F)cc2-c2cnn3ccccc23)C=C(C#N)C(=O)C(C)(C)C1 (single isomer, unassigned) [Compound 219, 3-[5-fluoro-3-(pyrazolo[1,5-a]pyridin-3-yl)pyridin-2-yl]-3-methoxy-5,5-dimethyl-6-oxocyclohex-1-ene-1-carbonitrile], COC1(c2ncc(F)cc2-c2cnn3c2CCC3)C=C(C#N)C(=O)C(C)(C)C1 (single isomer, unassigned) [Compound 231, 3-[3-(5,6-dihydro-4H-pyrrolo[1,2-v]pyrazol-3-yl)-5-fluoropyridin-2-yl]-3-methoxy-5,5-dimethyl-6-oxocyclohex-1-ene-1-carbonitrile] is 0.50 log units lower in pEC50: 8.30 for the first, 7.80 for the second. The first is the more potent here.

Compared with COC1(c2ncc(F)cc2-c2cncc(F)c2)C=C(C#N)C(=O)C(C)(C)C1 (single isomer, unassigned) [Compound 84, 3-[5-fluoro-3-(5-fluoro-3-pyridyl)-2-pyridyl]-3-methoxy-5,5-dimethyl-6-oxo-cyclohexene-1-carbonitrile], COC1(c2ncc(F)cc2-c2cnn(C)c2)C=C(C#N)C(=O)C(C)(C)C1 (centres unmarked) [Compound 161, 3-[5-fluoro-3-(1-methyl-1H-pyrazol-4-yl)pyridin-2-yl]-3-methoxy-5,5-dimethyl-6-oxocyclohex-1-ene-1-carbonitrile] is 0.37 log units lower in pEC50: 8.22 for the first, 7.85 for the second. The first is the more potent here.

Going from COC1(c2ncc(F)cc2F)C=C(C#N)C(=O)C(C)(C)C1 (centres unmarked) [Compound 28, 3-(3,5-difluoropyridin-2-yl)-3-methoxy-5,5-dimethyl-6-oxocyclohex-1-enecarbonitrile] to COC1(c2ncc(F)cc2Br)C=C(C#N)C(=O)C(C)(C)C1 (single isomer, unassigned) [Compound 48, 3-(3-bromo-5-fluoropyridin-2-yl)-3-methoxy-5,5-dimethyl-6-oxocyclohex-1-enecarbonitrile], the pEC50 rises from 7.44 to 8.22 (0.78 log units).

COC1(c2ncccc2C(F)F)C=C(C#N)C(=O)C(C)(C)C1 (centres unmarked) [Compound 124, 3-[3-(difluoromethyl)pyridin-2-yl]-3-methoxy-5,5-dimethyl-6-oxocyclohex-1-ene-1-carbonitrile] and COC1(c2ncc(Cl)cc2C(F)F)C=C(C#N)C(=O)C(C)(C)C1 (single isomer, unassigned) [Compound 45, 3-(5-chloro-3-(difluoromethyl)py-ridin-2-yl)-3-methoxy-5,5-dimethyl-6-oxocyclohex-1-enecarbonitrile] are within 0.2 log units of each other in pEC50: 7.57 for the first, 7.55 for the second.

First: COC1(c2cccc(-c3cncnc3)n2)C=C(C#N)C(=O)C(C)(C)C1 (single isomer, unassigned) [Compound 104, 3-methoxy-5,5-dimethyl-6-oxo-3-(6-(pyrimidin-5-yl)pyridin-2-yl)cyclohex-1-ene-1-carbonitrile]
Second: COC1(c2cccc(-c3cncnc3)n2)C=C(C#N)C(=O)C2(CC2)C1 (centres unmarked) [Compound 127, 7-methoxy-4-oxo-7-[6-(pyrimidin-5-yl)pyridin-2-yl]spiro[2.5]oct-5-ene-5-carbonitrile]
The pEC50 of the first is 0.78 log units higher: 7.35 for the first, 6.57 for the second.

First: CCOC1(c2ncccc2C(F)(F)F)C=C(C#N)C(=O)C(C)(C)C1 (single isomer, unassigned) [Compound 35, 3-ethoxy-5,5-dimethyl-6-oxo-3-(3-(trifluoromethyl)py-ridin-2-yl)cyclohex-1-enecarbonitrile]
Second: COC1(c2ncccc2OC(F)(F)F)C=C(C#N)C(=O)C(C)(C)C1 (single isomer, unassigned) [Compound 41, 3-methoxy-5,5-dimethyl-6-oxo-3-(3-(trifluoromethoxy)py-ridin-2-yl)cyclohex-1-enecarbonitrile]
The pEC50 of the first is 0.55 log units lower: 7.41 for the first, 7.96 for the second. The second is the more potent here.

CO[C@]1(c2ncc(C)s2)C=C(C#N)C(=O)C(C)(C)C1 [Compound 40, (S)-3-methoxy-5,5-dimethyl-3-(5-methylthiazol-2-yl)-6-oxocyclohex-1-enecarbonitrile] and CCCc1cccnc1C1(OC)C=C(C#N)C(=O)C(C)(C)C1 (single isomer, unassigned) [Compound 101, 3-methoxy-5,5-dimethyl-6-oxo-3-(3-propylpyridin-2-yl)cyclohex-1-ene-1-carbonitrile] are within 0.2 log units of each other in pEC50: 7.42 for the first, 7.48 for the second.

COC1(c2ncc(F)cc2-c2c(C)nn(C)c2C)C=C(C#N)C(=O)C(C)(C)C1 (centres unmarked) [Compound 187, 3-[5-fluoro-3-(1,3,5-trimethyl-1H-pyrazol-4-yl)pyridin-2-yl]-3-methoxy-5,5-dimethyl-6-oxocyclohex-1-ene-1-carbonitrile] and COC1(c2ncc(F)cc2-c2cnc3c(c2)OCCN3C)C=C(C#N)C(=O)C(C)(C)C1 (single isomer, unassigned) [Compound 205, 3-[5-fluoro-3-(4-methyl-3,4-dihydro-2H-pyrido[3,2-b][1,4]oxazin-7-yl)pyridin-2-yl]-3-methoxy-5,5-dimethyl-6-oxocyclohex-1-ene-1-carbonitrile] are within 0.2 log units of each other in pEC50: 7.11 for the first, 7.28 for the second.

COC1(c2nc(C)cs2)C=C(C#N)C(=O)C2(CC2)C1 (single isomer, unassigned) [Compound 59, 7-methoxy-4-7-(4-methyl-1,3-thiazol-2-yl)-4-oxospiro[2.5]oct-5-ene-5-carbonitrile] and COC1(c2cccc(-c3nccs3)n2)C=C(C#N)C(=O)C(C)(C)C1 (centres unmarked) [Compound 125, 3-methoxy-5,5-dimethyl-6-oxo-3-[6-(1,3-thiazol-2-yl)pyridin-2-yl]cyclohex-1-ene-1-carbonitrile] are within 0.2 log units of each other in pEC50: 6.58 for the first, 6.63 for the second.

Going from COC1(c2ncccc2OC(F)(F)F)C=C(C#N)C(=O)C(C)(C)C1 (centres unmarked) [Compound 147, 3-methoxy-5,5-dimethyl-6-oxo-3-[3-(trifluoromethoxy)pyridin-2-yl]cyclohex-1-ene-1-carbonitrile] to COC1(c2ncc(F)cc2-c2cnn(C3CC3)c2)C=C(C#N)C(=O)C(C)(C)C1 (single isomer, unassigned) [Compound 72, 3-[3-(1-cyclopropyl-1H-pyrazol-4-yl)-5-fluoropyridin-2-yl]-3-methoxy-5,5-dimethyl-6-oxocyclohex-1-ene-1-carbonitrile], the pEC50 rises from 7.66 to 8.22 (0.56 log units).

COC1(c2ncc(F)cc2-c2cnn(C3CCCC3)c2)C=C(C#N)C(=O)C(C)(C)C1 (single isomer, unassigned) [Compound 83, 3-[3-(1-cyclopentylpyrazol-4-yl)-5-fluoro-2-pyridyl]-3-methoxy-5,5-dimethyl-6-oxo-cyclohexene-1-carbonitrile] gave a pEC50 of 7.15.
